Test results published in PubChem BioAssay AID2060603 (Molecular Pharmacology Branch, DTP, NCI, 2025).
Several values for one entry are separate records, joined by “and”; a condition that tells them apart may be missing. Identical values can stand only once.

Tested on: 422866-222-R5-J1-PDC spheroid viability
Experiment: Anticancer human tumor 422866-222-R5-J1-PDC patient-derived pancreatic adenocarcinoma cell line growth inhibition [CLK]
Details: spheroids with HUVEC and MSC; for viability, T/C: stronger effect = lower value
How it was run: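 Multi-cell-type spheroids combined patient-derived tumor cells with HUVEC endothelial cells and human mesenchymal stem cells. Paired agents were dosed in half-log steps down from about clinical Cmax, or from 10 microM where Cmax was unknown.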

[1] = curve of first compound, second compound 0.0316 µM
[2] = curve of first compound, second compound 0.1 µM
[3] = curve of first compound, second compound 0.316 µM
[4] = curve of first compound, second compound 1 µM
[5] = curve of first compound, second compound 3.16 µM
[6] = curve of first compound, second compound 10 µM
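Note: spheroids exposed to agents for seven days before readout.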

Work on `Nc1ccccc1NC(=O)c1ccc(CNC(=O)OCc2cccnc2)cc1` + CNC(=O)c1ccc(Nc2nc(OC3CCCC3)c3c(-c4ccc5nc(C)oc5c4)c[nH]c3n2)c(OC)c1 yielded an IC50 [1] greater than 10 µM, an IC50 [2] greater than 10 µM and an IC50 [3] greater than 10 µM. The IC50 [4] was 4.64 µM, the IC50 [5] was greater than 10 µM and the IC50 [6] was greater than 10 µM. It also gave a viability, T/C (second compound 0.0316 µM, first compound 0.0316 µM) of 115%, a viability, T/C (second compound 0.0316 µM, first compound 0.1 µM) of 121% and a viability, T/C (second compound 0.0316 µM, first compound 0.316 µM) of 157%. The viability, T/C (second compound 0.0316 µM, first compound 1 µM) was 90%, the viability, T/C (second compound 0.0316 µM, first compound 3.16 µM) was 68.7% and the viability, T/C (second compound 0.0316 µM, first compound 10 µM) was 74.7%. The viability, T/C (second compound 0.1 µM, first compound 0.0316 µM) was 106%, the viability, T/C (second compound 0.1 µM, first compound 0.1 µM) was 116% and the viability, T/C (second compound 0.1 µM, first compound 0.316 µM) was 114%. It also gave a viability, T/C (second compound 0.1 µM, first compound 1 µM) of 99.8%, a viability, T/C (second compound 0.1 µM, first compound 3.16 µM) of 77.9% and a viability, T/C (second compound 0.1 µM, first compound 10 µM) of 79.2%. The viability, T/C (second compound 0.316 µM, first compound 0.0316 µM) was 82.5%, the viability, T/C (second compound 0.316 µM, first compound 0.1 µM) was 76.5% and the viability, T/C (second compound 0.316 µM, first compound 0.316 µM) was 77%. The viability, T/C (second compound 0.316 µM, first compound 1 µM) was 80.8%, the viability, T/C (second compound 0.316 µM, first compound 3.16 µM) was 64.5% and the viability, T/C (second compound 0.316 µM, first compound 10 µM) was 50.9%. For the same compound, the viability, T/C (second compound 1 µM, first compound 0.0316 µM) was 75.1%, the viability, T/C (second compound 1 µM, first compound 0.1 µM) was 67.6% and the viability, T/C (second compound 1 µM, first compound 0.316 µM) was 69.1%. For the same compound, the viability, T/C (second compound 1 µM, first compound 1 µM) was 60.8%, the viability, T/C (second compound 1 µM, first compound 3.16 µM) was 58.5% and the viability, T/C (second compound 1 µM, first compound 10 µM) was 39.1%. The viability, T/C (second compound 3.16 µM, first compound 0.0316 µM) was 65.7%, the viability, T/C (second compound 3.16 µM, first compound 0.1 µM) was 60.2% and the viability, T/C (second compound 3.16 µM, first compound 0.316 µM) was 77.6%. The viability, T/C (second compound 3.16 µM, first compound 1 µM) was 76.2%, the viability, T/C (second compound 3.16 µM, first compound 3.16 µM) was 60.6% and the viability, T/C (second compound 3.16 µM, first compound 10 µM) was 49.6%. The viability, T/C (second compound 10 µM, first compound 0.0316 µM) was 67.2%, the viability, T/C (second compound 10 µM, first compound 0.1 µM) was 60.6% and the viability, T/C (second compound 10 µM, first compound 0.316 µM) was 71.9%. It also gave a viability, T/C (second compound 10 µM, first compound 1 µM) of 61.2%, a viability, T/C (second compound 10 µM, first compound 3.16 µM) of 67.3% and a viability, T/C (second compound 10 µM, first compound 10 µM) of 48.1%.
In the case of `O=c1[nH]cc(F)c(=O)[nH]1`, the viability, T/C (compound 0.0316 µM) is reported as 101% and 102%, the viability, T/C (compound 0.1 µM) is reported as 95.5% and 95.8% and the viability, T/C (compound 0.316 µM) is reported as 91.1% and 85.6%. For the same compound, the viability, T/C (compound 1 µM) was 98% and 85.2%, the viability, T/C (compound 3.16 µM) was 65.5% and 77.1% and the viability, T/C (compound 10 µM) was 90.2% and 74.7%. It also gave an IC50 (curve of compound) greater than 10 µM.
Work on `NC(=O)C(=Cn1cnc(-c2cc(C(F)(F)F)cc(C(F)(F)F)c2)n1)c1cncnc1` + CN1CCN(c2cc(C(=O)Nc3cc4cc(-c5cnn(C)c5)ccc4cn3)ccn2)CC1 yielded an IC50 [1] greater than 3 µM, an IC50 [2] greater than 3 µM and an IC50 [3] of 0.0558 µM. For the same compound, the IC50 [4] was less than 0.00949 µM, the IC50 [5] was less than 0.00949 µM and the IC50 [6] was less than 0.00949 µM. The viability, T/C (second compound 0.0316 µM, first compound 0.00949 µM) was 123%, the viability, T/C (second compound 0.0316 µM, first compound 0.03 µM) was 117% and the viability, T/C (second compound 0.0316 µM, first compound 0.0949 µM) was 80%. The viability, T/C (second compound 0.0316 µM, first compound 0.3 µM) was 48.4%, the viability, T/C (second compound 0.0316 µM, first compound 0.949 µM) was 66.3% and the viability, T/C (second compound 0.0316 µM, first compound 3 µM) was 78.4%. The viability, T/C (second compound 0.1 µM, first compound 0.00949 µM) was 110%, the viability, T/C (second compound 0.1 µM, first compound 0.03 µM) was 94.6% and the viability, T/C (second compound 0.1 µM, first compound 0.0949 µM) was 73.8%. For the same compound, the viability, T/C (second compound 0.1 µM, first compound 0.3 µM) was 32.1%, the viability, T/C (second compound 0.1 µM, first compound 0.949 µM) was 55.6% and the viability, T/C (second compound 0.1 µM, first compound 3 µM) was 67.4%. The viability, T/C (second compound 0.316 µM, first compound 0.00949 µM) was 66.5%, the viability, T/C (second compound 0.316 µM, first compound 0.03 µM) was 63.8% and the viability, T/C (second compound 0.316 µM, first compound 0.0949 µM) was 38.2%. For the same compound, the viability, T/C (second compound 0.316 µM, first compound 0.3 µM) was 21.9%, the viability, T/C (second compound 0.316 µM, first compound 0.949 µM) was 21% and the viability, T/C (second compound 0.316 µM, first compound 3 µM) was 20.9%. The viability, T/C (second compound 1 µM, first compound 0.00949 µM) was 15.6%, the viability, T/C (second compound 1 µM, first compound 0.03 µM) was 14.2% and the viability, T/C (second compound 1 µM, first compound 0.0949 µM) was 15.1%. The viability, T/C (second compound 1 µM, first compound 0.3 µM) was 22.4%, the viability, T/C (second compound 1 µM, first compound 0.949 µM) was 22.9% and the viability, T/C (second compound 1 µM, first compound 3 µM) was 14.5%. The viability, T/C (second compound 3.16 µM, first compound 0.00949 µM) was 12.9%, the viability, T/C (second compound 3.16 µM, first compound 0.03 µM) was 15.1% and the viability, T/C (second compound 3.16 µM, first compound 0.0949 µM) was 18.3%. For the same compound, the viability, T/C (second compound 3.16 µM, first compound 0.3 µM) was 18.9%, the viability, T/C (second compound 3.16 µM, first compound 0.949 µM) was 19.9% and the viability, T/C (second compound 3.16 µM, first compound 3 µM) was 18.5%. For the same compound, the viability, T/C (second compound 10 µM, first compound 0.00949 µM) was 2.84%, the viability, T/C (second compound 10 µM, first compound 0.03 µM) was 1.47% and the viability, T/C (second compound 10 µM, first compound 0.0949 µM) was 2.11%. The viability, T/C (second compound 10 µM, first compound 0.3 µM) was 1.91%, the viability, T/C (second compound 10 µM, first compound 0.949 µM) was 6.33% and the viability, T/C (second compound 10 µM, first compound 3 µM) was 9.39%.
`Nc1ccn(C2OC(CO)C(O)C2(F)F)c(=O)n1` (stereo not drawn) was tested, and the viability, T/C (compound 0.0316 µM) was 73.9% and 72.8%, the viability, T/C (compound 0.1 µM) was 60.1% and 44.8% and the viability, T/C (compound 0.316 µM) was 44.6% and 38%. For the same compound, the viability, T/C (compound 1 µM) was 41.9% and 46.5%, the viability, T/C (compound 3.16 µM) was 41.6% and 39.7% and the viability, T/C (compound 10 µM) was 36.3% and 40.9%. For the same compound, the IC50 (curve of compound) was 0.221 µM and 0.0795 µM.
